Among the test systems are 786-0; DU-145; EKVX; HCC 2998; HCT-116; HOP-92; KM12; MCF7; MDA-MB-231; NCI-H522; OVCAR-3; OVCAR-4; PC-3; SF-295; SK-MEL-28; SN12C; SNB-19; U-251; UACC-257; UACC-62.
Test in all cases: inhibition of tumour cell growth, NCI panel, 48 h

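Protocol summary: plate cells (96-well), add compound at 5 concentrations, incubate 48 h, interpolate endpoints linearly. Abbreviation: GI50, concentration required for 50% inhibition of growth.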 Calls of active or inactive are those of the source. No stated cut-off is given here; in the data, active = GI50 up to about 1.1 µM and inactive = higher. Non-standard residues stand in square brackets, D forms with d. Residues, ends and D or L forms follow the SMILES beside them. ξ: configuration not given here. ξLac(3-iPr) = CC(C)CC(O)C(=O)O; NMeV = CN[CH](C(=O)O)C(C)C; NMeA = CN[CH](C)C(=O)O; βAla = NCCC(=O)O

Turning to `Cc1cc(O)c(-c2cc(O)c(C)cc2O)cc1O`, the GI50 was 2.94 µM (inactive) in the experiment on 786-0; 14.9 µM (inactive) in the experiment with DU-145; 8.99 µM (inactive) in the experiment on EKVX; 14.1 µM (inactive) with HCC 2998; 5.55 µM (inactive) with HCT-116; 2.25 µM (inactive) in the experiment with HOP-92. Besides, the GI50 in the experiment with KM12 is 12.6 µM (inactive); in the experiment with MCF7 it was 10 µM (inactive); in the experiment with MDA-MB-231, 14.2 µM (inactive); in the experiment with NCI-H522, 4.04 µM (inactive); in the experiment on OVCAR-3, 2.14 µM (inactive); in the experiment on OVCAR-4, 5.5 µM (inactive). Further, the GI50 is 11.6 µM (inactive) in the experiment with PC-3; 16.7 µM (inactive) with SF-295; 9.23 µM (inactive) in the experiment with SK-MEL-28; 6.25 µM (inactive) with SN12C; 18.9 µM (inactive) in the experiment with SNB-19; 15 µM (inactive) in the experiment with U-251. For the same compound, the GI50 was 7 µM (inactive) in the experiment on UACC-257 and 15.6 µM (inactive) in the experiment with UACC-62.

As to `Clc1c2nc3ccccc3c-2[nH]c2ccccc12`, the GI50 in the experiment on 786-0 is 32.5 µM (inactive); in the experiment on DU-145 it was 22 µM (inactive); in the experiment on EKVX, 10.6 µM (inactive); in the experiment with HCC 2998, 24.5 µM (inactive); with HCT-116 it was 8.55 µM (inactive); with HOP-92, > 100 µM (inactive). For the same compound, the GI50 in the experiment with KM12 was 3.94 µM (inactive); in the experiment on MCF7, 6.28 µM (inactive); in the experiment with MDA-MB-231 it was 11.7 µM (inactive); in the experiment with NCI-H522, 20.1 µM (inactive); with OVCAR-3 it was 69.7 µM (inactive); with OVCAR-4, > 100 µM (inactive). The GI50 in the experiment with PC-3 is 17.5 µM (inactive); with SF-295, < 0.01 µM (active); in the experiment on SK-MEL-28, 52.4 µM (inactive); in the experiment with SN12C it was 32.7 µM (inactive); in the experiment with SNB-19 it was > 100 µM (inactive); in the experiment on U-251 it was 50.4 µM (inactive). The GI50 with UACC-257 is 50.2 µM (inactive); in the experiment on UACC-62, 48.8 µM (inactive).

Consider `COc1ncnc2c1cnn2Cc1cn(CCCCO)nn1`, for which the GI50 in the experiment on 786-0, in the experiment with DU-145, with EKVX, in the experiment on HCC 2998, in the experiment with HCT-116 and with HOP-92 was > 100 µM (inactive) in each case. Moreover, the GI50 in the experiment with KM12, with MCF7, in the experiment on MDA-MB-231, in the experiment with NCI-H522, in the experiment on OVCAR-3 and in the experiment with OVCAR-4 was > 100 µM (inactive) each time. For the same compound, the GI50 in the experiment with PC-3, in the experiment with SF-295, in the experiment with SK-MEL-28, in the experiment with SN12C, in the experiment with SNB-19 and in the experiment on U-251 was > 100 µM (inactive) each time. In addition, the GI50 in the experiment with UACC-257 and in the experiment with UACC-62 was > 100 µM (inactive) in each case.

On to `COc1ccc(CC2OC3(CCCCC3)CC3CCCCN32)cc1` (stereo not given), for which the GI50 in the experiment on 786-0 was > 100 µM (inactive); in the experiment on DU-145, > 100 µM (inactive); with EKVX, > 100 µM (inactive); in the experiment with HCC 2998, > 100 µM (inactive); in the experiment on HCT-116, 43.8 µM (inactive); in the experiment on HOP-92, 98.9 µM (inactive). In addition, the GI50 with KM12 is > 100 µM (inactive); in the experiment on MCF7 it was 72.9 µM (inactive); with MDA-MB-231, 10.3 µM (inactive); in the experiment on NCI-H522, > 100 µM (inactive); in the experiment on OVCAR-3, 46 µM (inactive); with OVCAR-4, > 100 µM (inactive). Moreover, the GI50 with PC-3, with SF-295, in the experiment on SK-MEL-28, in the experiment with SN12C, in the experiment with SNB-19 and in the experiment with U-251 was > 100 µM (inactive) each time. The GI50 in the experiment with UACC-257 and in the experiment on UACC-62 was > 100 µM (inactive) throughout.

Consider `COc1cc(C2SC(=N)Nc3c2c(C)nn3C(=O)c2ccc(Cl)cc2)ccc1O` (stereo not given), for which the GI50 with 786-0, in the experiment on DU-145, with EKVX, with HCC 2998, in the experiment with HCT-116 and in the experiment with HOP-92 was > 10 µM (inactive) throughout. Further, the GI50 in the experiment on KM12, with MCF7, in the experiment with MDA-MB-231, in the experiment with NCI-H522, in the experiment on OVCAR-3 and in the experiment on OVCAR-4 was > 10 µM (inactive) throughout. Moreover, the GI50 in the experiment on PC-3, with SF-295, in the experiment with SK-MEL-28, with SN12C, in the experiment on SNB-19 and in the experiment on U-251 was > 10 µM (inactive) each time. Also, the GI50 with UACC-257 and in the experiment with UACC-62 was > 10 µM (inactive) in each case.

As to `CC(C)(C)c1cc(OCc2nnc3sc(S)nn23)c(Cl)cc1OCc1nnc2sc(S)nn12`, the GI50 with 786-0 was 31 µM (inactive); in the experiment on DU-145, 30.3 µM (inactive); in the experiment on EKVX, 30.3 µM (inactive); with HCC 2998, 31.8 µM (inactive); in the experiment on HCT-116, 22.1 µM (inactive); in the experiment with HOP-92, 17.5 µM (inactive). Moreover, the GI50 in the experiment on KM12 is 26.9 µM (inactive); with MCF7, 15.6 µM (inactive); in the experiment on MDA-MB-231, 36.6 µM (inactive); in the experiment with NCI-H522, 17.3 µM (inactive); in the experiment with OVCAR-3, 25.2 µM (inactive); with OVCAR-4 it was 32.5 µM (inactive). Besides, the GI50 was 50.9 µM (inactive) with PC-3; 27.9 µM (inactive) in the experiment with SF-295; 22.3 µM (inactive) in the experiment with SK-MEL-28; 30.4 µM (inactive) in the experiment with SN12C; 35.5 µM (inactive) with SNB-19; 29.1 µM (inactive) in the experiment with U-251. Further, the GI50 with UACC-257 is 27.7 µM (inactive); with UACC-62, 17.4 µM (inactive).

Turning to `COc1c(-c2ccc(O)c(O)c2)oc2c(O)c(O)cc(O)c2c1=O`, the GI50 in the experiment on 786-0 is 67.5 µM (inactive); with DU-145, > 100 µM (inactive); in the experiment with EKVX, > 100 µM (inactive); in the experiment with HCC 2998, > 100 µM (inactive); with HCT-116 it was 40.4 µM (inactive); with HOP-92, > 100 µM (inactive). Further, the GI50 is 66.5 µM (inactive) in the experiment on KM12; 28.2 µM (inactive) in the experiment with MCF7; > 100 µM (inactive) with MDA-MB-231; 32.1 µM (inactive) in the experiment with NCI-H522; 56.8 µM (inactive) with OVCAR-3; 50.6 µM (inactive) in the experiment with OVCAR-4. The GI50 in the experiment on PC-3 is > 100 µM (inactive); with SF-295, 39.1 µM (inactive); with SK-MEL-28, > 100 µM (inactive); with SN12C, 16.9 µM (inactive); in the experiment with SNB-19 it was > 100 µM (inactive); with U-251, 34.8 µM (inactive). Besides, the GI50 is > 100 µM (inactive) with UACC-257 and 51.1 µM (inactive) in the experiment on UACC-62.

On to `CC1Cc2cc(O)c(O)cc2-c2cc(O)c(O)cc2CC1C` (stereo not given), for which the GI50 in the experiment on 786-0 is 14.3 µM (inactive); with DU-145, 36.3 µM (inactive); in the experiment with EKVX, 18.5 µM (inactive); in the experiment with HCC 2998 it was 17.4 µM (inactive); with HCT-116, 17.9 µM (inactive); in the experiment with HOP-92, 15.3 µM (inactive). The GI50 was 4.48 µM (inactive) in the experiment on KM12; 12.1 µM (inactive) in the experiment with MCF7; 6.71 µM (inactive) in the experiment on MDA-MB-231; 9.57 µM (inactive) with NCI-H522; 10.9 µM (inactive) in the experiment on OVCAR-3; 15.6 µM (inactive) with OVCAR-4. Besides, the GI50 in the experiment with PC-3 was 19.3 µM (inactive); with SF-295, 4.41 µM (inactive); in the experiment with SK-MEL-28, 11.9 µM (inactive); in the experiment on SN12C it was 20.9 µM (inactive); in the experiment on SNB-19, 26.5 µM (inactive); in the experiment on U-251 it was 15.2 µM (inactive). For the same compound, the GI50 in the experiment with UACC-257 was 12.3 µM (inactive); in the experiment with UACC-62, 6.07 µM (inactive).

Consider `CCC(C)C1NC(=O)C2CCCN2C(=O)C(CC(C)C)OC(=O)CCNC(=O)C(C)N(C)C(=O)C(C(C)C)N(C)C1=O` (stereo not given) (cyclo([ξLac(3-iPr)]PI[NMeV][NMeA][βAla]); configuration not given here), for which the GI50 in the experiment with 786-0 was 2.09 µM (inactive); in the experiment with DU-145, 4.05 µM (inactive); in the experiment on EKVX, 10.2 µM (inactive); with HCC 2998, 2.13 µM (inactive); with HCT-116 it was 2.2 µM (inactive); with HOP-92, 17.9 µM (inactive). The GI50 with KM12 is 3.44 µM (inactive); with MCF7 it was 2.64 µM (inactive); in the experiment with MDA-MB-231 it was 6.24 µM (inactive); in the experiment with NCI-H522 it was 6.05 µM (inactive); in the experiment on OVCAR-3, 6.7 µM (inactive); in the experiment with OVCAR-4, > 50.7 µM (inactive). In addition, the GI50 in the experiment with PC-3 is 1.79 µM (inactive); in the experiment on SF-295 it was 2.5 µM (inactive); in the experiment with SK-MEL-28 it was 36.1 µM (inactive); in the experiment with SN12C, 6.84 µM (inactive); with SNB-19, 49 µM (inactive); in the experiment on U-251 it was 10.3 µM (inactive). In addition, the GI50 in the experiment on UACC-257 was 6.32 µM (inactive); in the experiment on UACC-62, 2.21 µM (inactive).

As to `CC1=C2C(=O)[C@H]3[C@@H](CC=C4C[C@@H](O)CC[C@@]43C)[C@@H]2CC[C@]12O[C@@H]1C[C@H](C)CN[C@H]1[C@H]2C` [JERVINE], the GI50 is > 41.9 µM (inactive) with 786-0; > 100 µM (inactive) in the experiment with DU-145; > 45.9 µM (inactive) in the experiment with EKVX; > 54 µM (inactive) in the experiment on HCC 2998; > 46 µM (inactive) in the experiment on HCT-116; 11.9 µM (inactive) with HOP-92. Moreover, the GI50 is > 50.4 µM (inactive) with KM12; > 100 µM (inactive) in the experiment with MCF7; > 100 µM (inactive) in the experiment on MDA-MB-231; > 42.2 µM (inactive) in the experiment on NCI-H522; > 40.6 µM (inactive) in the experiment with OVCAR-3; > 44.5 µM (inactive) with OVCAR-4. Further, the GI50 is > 100 µM (inactive) with PC-3; > 44.1 µM (inactive) in the experiment on SF-295; > 49.3 µM (inactive) in the experiment with SK-MEL-28; > 43.4 µM (inactive) in the experiment with SN12C; > 41.7 µM (inactive) with SNB-19; > 41.4 µM (inactive) in the experiment with U-251. The GI50 in the experiment on UACC-257 was > 49.3 µM (inactive); in the experiment on UACC-62, > 53.7 µM (inactive).

These data come from ChEMBL document CHEMBL1201862, “PubChem BioAssay data set” (2004).
